Data reported in publication PMC10349806 (Nature Communications, 2023).
Positions count from the first letter of the chain named. Several values for one entry are separate records, joined by “and”; a condition that tells them apart may be missing. Equal entries are not always repeated.

Columns and labels:
PfCRT variant F268A = biological target: T1, PfCRT variant F268A (Plasmodium falciparum, UniProt Q9N623, A220S/F268A/I356T/K76T/M74I/N326S/N75E/Q271E/R371I); experiment: CQ uptake assay, oocytes expressing F268A; type: cell-based
T1 sequence (Q9N623 1-424 M74I/N75E/K76T/A220S/F268A/Q271E/N326S/I356T/R371I): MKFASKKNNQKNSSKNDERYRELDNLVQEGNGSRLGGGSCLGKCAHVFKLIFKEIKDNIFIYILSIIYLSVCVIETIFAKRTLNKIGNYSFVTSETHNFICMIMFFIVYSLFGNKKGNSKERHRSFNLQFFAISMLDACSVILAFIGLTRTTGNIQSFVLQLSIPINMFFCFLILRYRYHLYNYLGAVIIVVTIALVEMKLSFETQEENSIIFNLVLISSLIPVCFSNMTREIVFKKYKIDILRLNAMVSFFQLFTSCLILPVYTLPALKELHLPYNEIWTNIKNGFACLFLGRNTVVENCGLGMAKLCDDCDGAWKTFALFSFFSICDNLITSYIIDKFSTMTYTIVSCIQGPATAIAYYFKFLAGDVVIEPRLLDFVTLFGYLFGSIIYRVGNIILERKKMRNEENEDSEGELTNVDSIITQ
Procedure: (§1) Site-directed mutagenesis of PfCRT^Dd2 was performed as described using the megaprimer method with overlap extension[21],[54]. The primer pairs used are listed in Supplementary Table 6. Please note that a codon-optimized and oocyte-adapted version of PfCRT^Dd2 was used[22] (Supplementary Fig. 16). The resulting DNA fragment was cloned into the SP64T expression vector and verified by sequencing.
(§2) Oocytes were obtained as described previously. Briefly, adult (>2 years old) female X. laevis frogs (NASCO) were anesthetized in a cooled solution of ethyl 3-amino benzoate methanesulfonate (0.1%, w/v), followed by a surgical removal of parts of the ovary. The ovary lobes were carefully dissected and small pieces of oocytes were incubated in Ca^2+-free ND96 buffer (96 mM NaCl, 2 mM KCl, 1 mM MgCl2 buffered with 5 mM HEPES/NaOH, pH 7.5) supplemented with collagenase D (0.1%, w/v; Roche), BSA (0.5%, w/v), and 9 mm Na2HPO4 at 18 °C for 14-16 h while gentle shaking. After incubation, the oocytes were carefully washed several times with ND96 buffer (96 mM NaCl, 2 mM KCl, 1.8 mM CaCl2, 1 mM MgCl2 buffered with 5 mM HEPES/NaOH, pH 7.5) supplemented with 100 mg l^−1 gentamycin). Defolliculated and healthy-looking stage V-VI oocytes were manually selected for RNA microinjection. The RNA was generated as following: The codon-optimized sequences of PfCRT variants were cloned into the pSP64T expression vector. After vector linearization using the restriction endonucleases BamHI or SalI (New England Biolabs), transcription was performed using the in vitro SP6 mMessage mMachine Kit (Ambion)[34]. The obtained RNA was kept at −80 °C and diluted with nuclease-free water to a concentration of 0.6 μg μl^−1. Precision-bore glass capillary tubes (3.5-inch glass capillaries; Drummond Scientific Co.) were pulled on a vertical puller (P-87 Flaming/Brown micropipette puller, Sutter Instrument Co.), graduated, and placed on a microinjector (Nanoject II Auto-Nanoliter Injector, Drummond Scientific Co.). 50 nl of nuclease-free water alone (control oocytes) or 50 nl of 0.6 μg μl^−1 RNA were injected under stereomicroscopic control. Injected oocytes were incubated for 46–72 h at 18 °C with twice-daily buffer changes before usage in experiments.
Drug uptake assays were performed as described previously[21],[22],[24],[34]. […] The direction of radio-labeled drug transport is here from the mostly acidic extracellular solution (pH 4.5 or 6.0, as indicated) into the oocyte cytosol (pH ∼ 7.2), which corresponds to the efflux of drug from the acidic digestive vacuole (pH 5.2) into the parasite cytoplasm (pH 7.2). The topology of PfCRT in the oolemma is such that both the N- and C-terminus face the extracellular milieu[3],[22]. In the parasite, the N- and C-terminus face the lumen of the digestive vacuole. CQ uptake kinetics were performed by incubating oocytes in ND96 buffer adjusted to a pH of 4.5, 5.0, 5.5, or 6.0 and supplemented with 50 nM [^3H]CQ and one of 7 different CQ concentrations (10 µM, 50 µM, 100 µM, 200 µM, 300 µM, 400 µM, 500 µM CQ). The reaction was stopped at the 60 min time point, which is in the linear uptake range[22],[34] (Supplementary Fig. 17). […] The radioactivity of each sample was measured using a liquid scintillation analyzer Tri-Carb 4910 TR (PerkinElmer). Oocytes that were injected with water instead of RNA were analyzed in parallel, representing the uptake of a drug by diffusion and/or endogenous permeation pathways. […]

PfCRT variant D338A = biological target: T2, PfCRT variant D338A (Plasmodium falciparum, UniProt Q9N623, A220S/D338A/I356T/K76T/M74I/N326S/N75E/Q271E/R371I); experiment: CQ uptake assay, oocytes expressing D338A; type: cell-based
T2 sequence (Q9N623 1-424 M74I/N75E/K76T/A220S/Q271E/N326S/D338A/I356T/R371I): T1 sequence (Q9N623 1-424 M74I/N75E/K76T/A220S/F268A/Q271E/N326S/I356T/R371I) with A268F, D338A
Procedure: as §1, §2
Drug uptake assays were performed as described previously[21],[22],[24],[34]. […] The direction of radio-labeled drug transport is here from the mostly acidic extracellular solution (pH 4.5 or 6.0, as indicated) into the oocyte cytosol (pH ∼ 7.2), which corresponds to the efflux of drug from the acidic digestive vacuole (pH 5.2) into the parasite cytoplasm (pH 7.2). The topology of PfCRT in the oolemma is such that both the N- and C-terminus face the extracellular milieu[3],[22]. In the parasite, the N- and C-terminus face the lumen of the digestive vacuole. CQ uptake kinetics were performed by incubating oocytes in ND96 buffer adjusted to a pH of 4.5, 5.0, 5.5, or 6.0 and supplemented with 50 nM [^3H]CQ and one of 7 different CQ concentrations (10 µM, 50 µM, 100 µM, 200 µM, 300 µM, 400 µM, 500 µM CQ). The reaction was stopped at the 60 min time point, which is in the linear uptake range[22],[34] (Supplementary Fig. 17). For determination of the amount of drug uptake for each oocyte, the reaction medium was removed and the oocytes were washed three times with 2 ml of ice-cold ND96 buffer. Each oocyte was individually transferred to a scintillation vial containing 5% sodium dodecyl sulfate (200 μl) for lysis. The radioactivity of each sample was measured using a liquid scintillation analyzer Tri-Carb 4910 TR (PerkinElmer). Oocytes that were injected with water instead of RNA were analyzed in parallel, representing the uptake of a drug by diffusion and/or endogenous permeation pathways. The resulting value represents the “background“ level of drug accumulation in oocytes (in-depth discussion in[22]). […]

[1] = F268A, 50 µM CQ, 1 h, mean ± SEM
[2] = pH 4.5, single replicates, Fig 1d left
[3] = pH 6.0, single replicates, Fig 1d left
[4] = D338A, 50 µM CQ, 1 h, mean ± SEM

CCN(CC)CCCC(C)Nc1ccnc2cc(Cl)ccc12 (centres unmarked) [CQ, chloroquine]
Activity at pH 4.5 (PfCRT variant F268A; [1]): 1.06 ± 0.19 pmol h-1 oocyte-1
Activity at pH 6.0 (PfCRT variant F268A; [1]): 2.93 ± 0.28 pmol h-1 oocyte-1
R-value (PfCRT variant F268A; F268A, CQ transport at pH 4.5 / pH 6.0): 0.40 ± 0.10
F268A transport activity pH 4.5 (PfCRT variant F268A; [2]): 0.75 pmol oocyte-1 h-1 and 1.37 pmol oocyte-1 h-1 and 0.63 pmol oocyte-1 h-1 and 1.50 pmol oocyte-1 h-1
F268A transport activity pH 6.0 (PfCRT variant F268A; [3]): 3.49 pmol oocyte-1 h-1 and 2.31 pmol oocyte-1 h-1 and 3.48 pmol oocyte-1 h-1 and 2.45 pmol oocyte-1 h-1
Activity at pH 4.5 (PfCRT variant D338A; [4]): 2.35 ± 0.19 pmol h-1 oocyte-1
Activity at pH 6.0 (PfCRT variant D338A; [4]): 5.20 ± 0.52 pmol h-1 oocyte-1
R-value (PfCRT variant D338A; D338A, CQ transport at pH 4.5 / pH 6.0): 0.47 ± 0.06
D338A transport activity pH 4.5 (PfCRT variant D338A; [2]): 2.81 pmol oocyte-1 h-1 and 2.11 pmol oocyte-1 h-1 and 2.14 pmol oocyte-1 h-1
D338A R-value (PfCRT variant D338A; pH 4.5 vs pH 6.0, Fig 1d left): 0.58 and 0.33 and 0.49
D338A transport activity pH 6.0 (PfCRT variant D338A; [3]): 4.85 pmol oocyte-1 h-1 and 6.43 pmol oocyte-1 h-1 and 4.33 pmol oocyte-1 h-1
